Source: patent publication US20090209578A1, “CHEMICAL COMPOUNDS” (PFIZER INC, priority 2005, published 2009)

target: HIV-1 fusion (gp160 induced cell-cell fusion; HeLa P4 cell line expressing CCR5 and CD4 / CHO-Tat10 cell line) (Homo sapiens, UniProt P51681); experiment: gp160 induced cell-cell fusion assay; format: cell-based; conditions: HeLa P4 / CHO-Tat10 cells, read-out: IC50
Text: Biol., 60, 147-52 (1996); and/or by using the intracellular calcium mobilisation assays as described by the same authors, and/or inhibiting cell fusion following procedures disclosed in Bradley et al., J Biomol Screen 9, 516-24 (2004).
The gp160 induced cell-cell fusion assay uses a HeLa P4 cell line and a CHO-Tat10 cell line.
The HeLa P4 cell line expresses CCR5 and CD4 and has been transfected with HIV-1 LTR-β-Galactosidase. The media for this cell line is Dulbecco modified eagle's medium (D-MEM) (without L-glutamine) containing 10% foetal calf serum (FCS), 2 mM L-glutamine, penicillin/streptomycin (Pen/Strep; 100 U/mL penicillin+[…] streptomycin), and 1 μg/ml puromycin.
The CHO cell line is a Tat (transcriptional trans activator)-expressing clone from a CHO JRR17.1 cell line that has been transfected with pTat puro plasmid. The media for this cell line is rich medium for mammalian cell culture originally developed at Roswell Park Memorial Institute RPMI1640 (without L-glutamine) containing 10% FCS, 2 mM L-glutamine, 0.5 mg/ml Hygromycin B and 12 µg/ml puromycin. The CHO JRR17.1 line expresses gp160 (JRFL) and is a clone that has been selected for its ability to fuse with a CCR5/CD4 expressing cell line.
Upon cell fusion, Tat present in the CHO cell is able to transactivate the HIV-1 long terminal repeat (LTR) present in the HeLa cell leading to the expression of the β-Galactosidase enzyme. This expression is then measured using a Fluor Ace™ β-Galactosidase reporter assay kit (Bio-Rad cat no. 170-3150). This kit is a quantitative fluorescent assay that determines the level of expression of β-galactosidase using 4-methylumbelliferyl-galactopyranoside (MUG) as substrate. β-Galactosidase hydrolyses the fluorogenic substrate resulting in release of the fluorescent molecule 4-methylumbelliferone (4MU). Fluorescence of 4-methylumbelliferone is then measured on a fluorometer using an excitation wavelength of 360 nm and emission wavelength of 460 nm.
Compounds that inhibit fusion will give rise to a reduced signal and, following solubilisation in an appropriate solvent and dilution in culture medium, a dose-response curve for each compound can be used to calculate IC50 values.

Sequence of HIV-1 fusion (gp160 induced cell-cell fusion; HeLa P4 cell line expressing CCR5 and CD4 / CHO-Tat10 cell line) (P51681 whole entry, the tested form may be a part): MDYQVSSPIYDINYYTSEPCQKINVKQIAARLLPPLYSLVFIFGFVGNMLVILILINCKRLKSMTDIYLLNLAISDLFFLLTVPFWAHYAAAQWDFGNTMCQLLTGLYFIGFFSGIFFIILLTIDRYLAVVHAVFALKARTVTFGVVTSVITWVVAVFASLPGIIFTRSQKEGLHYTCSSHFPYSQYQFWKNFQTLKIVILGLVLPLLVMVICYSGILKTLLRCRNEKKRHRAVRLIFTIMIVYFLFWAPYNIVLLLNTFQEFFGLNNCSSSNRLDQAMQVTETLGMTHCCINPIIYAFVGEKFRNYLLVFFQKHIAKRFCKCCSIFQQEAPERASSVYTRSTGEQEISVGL

SMILES | IC50
CC(=O)N[C@@H](CC(C)N1CCC(n2c(C)nc3c2CN(C(=O)C(C)C)CC3)CC1)c1ccccc1 (single isomer, unassigned) [Example 31] | 191 nM
CCCC(=O)N[C@@H](CC(C)N1CCC(n2c(C)nc3c2CN(C(C)=O)CC3)CC1)c1cccc(F)c1 (single isomer, unassigned) [Example 47] | 0.7 nM
CC(=O)N1CCc2nc(C)n(C3CCN(C(C)C[C@H](NC(=O)CC(C)C)c4cccc(F)c4)CC3)c2C1 (single isomer, unassigned) [Example 50] | 0.4 nM
CC(=O)N1CCc2nc(C)n(C3CCN(C(C)C[C@H](NC(=O)C4CCC(F)(F)CC4)c4cccc(F)c4)CC3)c2C1 (single isomer, unassigned) [Example 51] | 0.3 nM
COC(=O)N1CCc2c(nc(C)n2C2CCN(C(C)C[C@H](NC(C)=O)c3ccccc3)CC2)C1 (single isomer, unassigned) [Example 72] | 2.4 nM
COC(=O)N1CCc2c(nc(C)n2C2CCN(C(C)C[C@H](NC(C)=O)c3ccccc3)CC2)C1 (single isomer, unassigned) [Example 73] | 9.1 nM
CC(=O)N1CCc2c(nc(C)n2C2CCN(C(C)C[C@H](NC(=O)C(C)C)c3cccc(F)c3)CC2)C1 (single isomer, unassigned) [Example 93] | 12.9 nM
CCOC(=O)N1CCc2c(nc(C)n2C2CCN(C(C)C[C@H](NC(=O)C(C)C)c3cccc(F)c3)CC2)C1 (single isomer, unassigned) [Example 95] | 5.5 nM
CCOC(=O)N1CCc2c(nc(C)n2C2CCN(C(C)C[C@H](NC(=O)C3CC3)c3cccc(F)c3)CC2)C1 (single isomer, unassigned) [Example 97] | 10 nM
CCOC(=O)N1CCc2c(nc(C)n2C2CCN(C(C)C[C@H](NC(=O)CC)c3cccc(F)c3)CC2)C1 (single isomer, unassigned) [Example 98] | 19.1 nM
CC(=O)N1CCc2c(nc(C)n2C2CCN(C(C)C[C@H](NC(=O)C3CC3)c3cccc(F)c3)CC2)C1 (single isomer, unassigned) [Example 101] | 18.8 nM
CCC(=O)N[C@@H](CC(C)N1CCC(n2c(C)nc3c2CCN(C(C)=O)C3)CC1)c1cccc(F)c1 (single isomer, unassigned) [Example 102] | 25.9 nM
Cc1noc(C2CCN(C(C)C[C@H](NC(=O)OC(C)(C)C)c3ccccc3)CC2)n1 (single isomer, unassigned) [Example 106A] | 362 nM
Cc1noc(C2CCN(C(C)C[C@H](NC(=O)C3CCC(F)(F)CC3)c3ccccc3)CC2)n1 (single isomer, unassigned) [Example 109] | 4.6 nM
Cc1noc(C2CCN(C(C)C[C@H](NC(=O)C3CCC(F)(F)CC3)c3ccccc3)CC2)n1 (single isomer, unassigned) [Example 110] | 353 nM
Cc1cc(C(C)C)n(C2CCN(C(C)C[C@H](NC(=O)C3CCC(F)(F)CC3)c3ccccc3)CC2)n1 (single isomer, unassigned) [Example 116] | 50.5 nM
Cc1cc(C(C)C)n(C2CCN(C(C)C[C@H](NC(=O)C3CCC(F)(F)CC3)c3ccccc3)CC2)n1 (single isomer, unassigned) [Example 117] | 1170 nM
CC(C)c1nnnn1C1CCN(C(C)C[C@H](NC(=O)C2CCC(F)(F)CC2)c2ccccc2)CC1 (single isomer, unassigned) [Example 121] | 0.5 nM
CC(C[C@H](NC(=O)C1CCC(F)(F)CC1)c1ccccc1)N1CCC(c2nnnn2C(C)C)CC1 (single isomer, unassigned) [Example 125] | 2.2 nM
CC(C[C@H](NC(=O)C1CCC(F)(F)CC1)c1ccccc1)N1CCC(c2nnnn2C(C)C)CC1 (single isomer, unassigned) [Example 126] | 21.8 nM
COC(=O)N1CCc2nc(C)n(C3CCN(C(C)C[C@H](NC(=O)C4CCC4(F)F)c4ccccc4)CC3)c2C1 (some centres unmarked) [Example 5] | 0.7 nM

SMILES | IC50
Cc1nc2c(n1C1CCN(C(C)C[C@H](NC(=O)C3(C)CC3)c3ccccc3)CC1)CN(C(=O)C(C)C)CC2 (some centres unmarked) [Example 22] | 0.5 nM
Cc1nc2c(n1C1CCN(C(C)C[C@H](NC(=O)C3CC(F)(F)C3)c3ccccc3)CC1)CN(C(=O)C(C)C)CC2 (stereo partly drawn) [Example 25, 3,3-Difluoro-N-{(1S)-3-[4-(5-isobutyryl-2-methyl-4,5,6,7-tetrahydro-3H-imidazo[4,5-c]pyridin-3-yl)piperidin-1-yl]-1-phenylbutyl}cyclobutanecarboxamide] | 0.4 nM
Cc1nc2c(n1C1CCN(C(C)C[C@H](NC(=O)C3CCC3(F)F)c3ccccc3)CC1)CN(C(=O)C(C)C)CC2 (some centres unmarked) [Example 26] | 38.5 nM
Cc1nc2c(n1C1CCN(C(C)C[C@H](NC(=O)C3(C)CC3)c3ccccc3)CC1)CN(C(=O)C(C)C)CC2 (some centres unmarked) [Example 27] | 115 nM
CC(=O)N1CCc2nc(C)n(C3CCN(C(C)C[C@H](NC(=O)C4(C)CC4)c4cccc(F)c4)CC3)c2C1 (some centres unmarked) [Example 48] | 0.8 nM
CC(=O)N1CCc2nc(C)n(C3CCN(C(C)C[C@H](NC(=O)C4CCC4(F)F)c4cccc(F)c4)CC3)c2C1 (some centres unmarked) [Example 49] | 0.4 nM
CC(=O)N1CCc2nc(C)n(C3CCN(C(C)C[C@H](NC(=O)C4CCOCC4)c4cccc(F)c4)CC3)c2C1 (some centres unmarked) [Example 52] | 1 nM
CC(=O)N1CCc2nc(C)n(C3CCN(C(C)C[C@H](NC(=O)C4CCC4(F)F)c4ccccc4)CC3)c2C1 (some centres unmarked) [Example 53] | 0.5 nM
CC(=O)N1CCc2nc(C)n(C3CCN(C(C)C[C@H](NC(=O)C4CCC(F)(F)CC4)c4ccccc4)CC3)c2C1 (some centres unmarked) [Example 54] | 0.4 nM
CC(=O)N1CCc2nc(C)n(C3CCN(C(C)C[C@H](NC(=O)C4(C)CC4)c4ccccc4)CC3)c2C1 (some centres unmarked) [Example 55] | 0.3 nM
CC(=O)N1CCc2nc(C)n(C3CCN(C(C)C[C@H](NC(=O)C4CCC4)c4cccc(F)c4)CC3)c2C1 (some centres unmarked) [Example 57] | 0.2 nM
COC(=O)N[C@@H](CC(C)N1CCC(n2c(C)nc3c2CN(C(C)=O)CC3)CC1)c1cccc(F)c1 (some centres unmarked) [Example 59] | 13 nM
CC(=O)N1CCc2nc(C)n(C3CCN(C(C)C[C@H](NC(=O)C4CC4)c4cccc(F)c4)CC3)c2C1 (some centres unmarked) [Example 60] | 0.6 nM
CC(=O)N1CCc2nc(C)n(C3CCN(C(C)C[C@H](NC(=O)OC(C)C)c4cccc(F)c4)CC3)c2C1 (some centres unmarked) [Example 61] | 1.6 nM
CC(=O)N1CCc2nc(C)n(C3CCN(C(C)C[C@H](NC(=O)OC(C)C)c4ccccc4)CC3)c2C1 (some centres unmarked) [Example 63] | 1.8 nM
CC(=O)N[C@@H](CC(C)N1CCC(n2c(C)nc3c2CN(C(=O)C(C)C)CC3)CC1)c1cccc(F)c1 (some centres unmarked) [Example 64] | 2 nM
CCC(=O)N[C@@H](CC(C)N1CCC(n2c(C)nc3c2CN(C(=O)C(C)C)CC3)CC1)c1cccc(F)c1 (some centres unmarked) [Example 65] | 0.6 nM
CCOC(=O)N1CCc2nc(C)n(C3CCN(C(C)C[C@H](NC(C)=O)c4cccc(F)c4)CC3)c2C1 (stereo partly drawn) [Example 66, Ethyl 3-{1-[(3S)-3-(acetylamino)-3-(3-fluorophenyl)-1-methylpropyl]piperidin-4-yl}-2-methyl-3,4,6,7-tetrahydro-5H-imidazo[4,5-c]pyridine-5-carboxylate] | 3.5 nM
CCC(=O)N[C@@H](CC(C)N1CCC(n2c(C)nc3c2CN(C(=O)OC)CC3)CC1)c1cccc(F)c1 (some centres unmarked) [Example 67] | 0.2 nM
CCCC(=O)N[C@@H](CC(C)N1CCC(n2c(C)nc3c2CN(C(=O)OC)CC3)CC1)c1cccc(F)c1 (stereo partly drawn) [Example 69, Methyl 3-{1-[(3S)-3-(butyrylamino)-3-(3-fluorophenyl)-1-methylpropyl]piperidin-4-yl}-2-methyl-3,4,6,7-tetrahydro-5H-imidazo[4,5-c]pyridine-5-carboxylate] | 0.2 nM

same assay, conditions: IC50 (nM), HeLa P4 / CHO-Tat10 cells

SMILES | IC50
CCCC(=O)N[C@@H](CC(C)N1CCC(n2c(C)nc3c2CN(C(C)=O)CC3)CC1)c1ccccc1 (stereo partly drawn) [Example 56, N-{(1S)-3-[4-(5-acetyl-2-methyl-4,5,6,7-tetrahydro-3H-imidazo[4,5-c]pyridin-3-yl)piperidin-1-yl]-1-phenylbutyl}butanamide] | 1.2 nM
CC(=O)N1CCc2nc(C)n(C3CCN(C(C)C[C@H](NC(=O)C(C)C)c4cccc(F)c4)CC3)c2C1 (stereo partly drawn) [Example 58, N-[(1S)-3-[4-(5-acetyl-2-methyl-4,5,6,7-tetrahydro-3H-imidazo[4,5-c]pyridin-3-yl)piperidin-1-yl]-1-(3-fluorophenyl)butyl]-2-methylpropanamide] | 0.5 nM
CCC(=O)N[C@@H](CC(C)N1CCC(n2c(C)nc3c2CN(C(C)=O)CC3)CC1)c1cccc(F)c1 (stereo partly drawn) [Example 62, N-[(1S)-3-[4-(5-acetyl-2-methyl-4,5,6,7-tetrahydro-3H-imidazo[4,5-c]pyridin-3-yl)piperidin-1-yl]-1-(3-fluorophenyl)butyl]propanamide] | 1 nM
